Measured values as given in patent US20110098352A1, “N,N-DISUBSTITUTED AMINOALKYLBIPHENYL ANTAGONISTS OF PROSTAGLANDIN D2 RECEPTORS” (AMIRA PHARMACEUTICALS, INC., priority 2008, published 2011).

What was measured:
[1] = biological target: T1, recombinant human CRTH2 receptor (Homo sapiens, UniProt Q9Y5Y4); experiment: GTPγS binding assay; type: biochemical; conditions: +HSA; CHO cell membranes, 80 nM PGD2; read-out: hDP2 GTPγS μM (+HSA)
T1 construct: expressed in transfected cells
T1 sequence (Q9Y5Y4 1-395): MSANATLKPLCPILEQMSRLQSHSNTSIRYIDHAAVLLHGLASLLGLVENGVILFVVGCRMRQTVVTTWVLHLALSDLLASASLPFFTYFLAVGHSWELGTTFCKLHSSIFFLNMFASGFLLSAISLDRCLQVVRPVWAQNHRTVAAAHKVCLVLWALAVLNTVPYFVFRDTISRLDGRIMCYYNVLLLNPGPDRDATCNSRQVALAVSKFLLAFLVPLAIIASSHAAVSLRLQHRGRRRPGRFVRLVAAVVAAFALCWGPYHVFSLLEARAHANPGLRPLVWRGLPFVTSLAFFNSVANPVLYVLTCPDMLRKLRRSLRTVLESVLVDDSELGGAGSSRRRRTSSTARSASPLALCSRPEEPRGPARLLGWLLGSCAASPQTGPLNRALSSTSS
Description: The ability of a compound to inhibit binding of GTP to DP2 is assessed via a membrane GTPγS assay. CHO cells stably expressing the recombinant human CRTH2 receptor are resuspended in 10 mM Hepes, 7.4 containing 1 mM DTT, lysed and centrifuged at 75,000×g to pellet the membranes. The membranes are resuspended in 10 mM Hepes, 7.4 containing 1 mM DTT and 10% glycerol. […] The reactions are terminated by rapid filtration through Whatman GF/B glass fibre filter plates. The filter plates are washed 3 times with 1 ml cold Assay Buffer and dried. Scintillant is then added to the plates and the radioactivity retained on the filters is determined on a Packard TopCount (Perkin Elmer). Specific binding is determined as total radioactive binding minus non-specific binding in the absence of the ligand (80 nM PGD2). IC50s were determined using Graphpad prism analysis of drug titration curves.

human DP2 receptor = biological target: T2, human DP2 receptor (Homo sapiens, UniProt Q9Y5Y4); experiment: DP2/CRTH2 radioligand binding assay using [3H]PGD2; conditions: [3H]PGD2 binding, membranes of HEK293 cells expressing recombinant human DP2; read-out: hDP2
T2 construct: expressed in transfected cells
T2 sequence (Q9Y5Y4 1-395): T1 sequence (Q9Y5Y4 1-395)
Description: The ability of a compound to bind to the human DP2 receptor is assessed via a radioligand binding assay using [^3H]PGD2. HEK293 cells stably expressing recombinant human DP2 are resuspended in 10 mM Hepes, 7.4 containing 1 mM DTT, lysed and centrifuged at 75,000×g to pellet the membranes. The membranes are resuspended in 10 mM Hepes, 7.4 containing 1 mM DTT and 10% glycerol to approximately 5 mg protein/ml. Membranes (2-10 μg protein/well) are incubated in 96-well plates with 1 nM [^3H]PGD2 and test compound in Assay Buffer (50 mM Hepes, 10 mM MnCl2, 1 mM EDTA, plus or minus 0.2% human serum albumin, pH 7.4) for 60 minutes at room temperature. The reactions are terminated by rapid filtration through Whatman GF/C glass fibre filter plates. The filter plates were pre-soaked in 0.33% polythylenimine for 30 minutes at room temperature then washed in Wash Buffer (50 mM Hepes, 0.5 M NaCl pH 7.4) prior to harvesting. After harvesting, the filter plates are washed 3 times with 1 ml cold Wash Buffer then dried. Scintillant is then added to the plates and the radioactivity retained on the filters is determined on a Packard TopCount (Perkin Elmer). Specific binding is determined as total radioactive binding minus non-specific binding in the presence of 10 μM PGD2. IC50s were determined using GraphPad prism analysis of drug titration curves.

human DP1 receptor = biological target: T3, human DP1 receptor (Homo sapiens, UniProt Q13258); experiment: DP1 radioligand membrane binding assay using [3H]BWA868C; conditions: [3H]BWA868C binding, human platelet membranes; read-out: hDP1
T3 construct: tissue Biological Specialty Corporation; host or cells: human platelets, membranes
T3 sequence (Q13258 1-359): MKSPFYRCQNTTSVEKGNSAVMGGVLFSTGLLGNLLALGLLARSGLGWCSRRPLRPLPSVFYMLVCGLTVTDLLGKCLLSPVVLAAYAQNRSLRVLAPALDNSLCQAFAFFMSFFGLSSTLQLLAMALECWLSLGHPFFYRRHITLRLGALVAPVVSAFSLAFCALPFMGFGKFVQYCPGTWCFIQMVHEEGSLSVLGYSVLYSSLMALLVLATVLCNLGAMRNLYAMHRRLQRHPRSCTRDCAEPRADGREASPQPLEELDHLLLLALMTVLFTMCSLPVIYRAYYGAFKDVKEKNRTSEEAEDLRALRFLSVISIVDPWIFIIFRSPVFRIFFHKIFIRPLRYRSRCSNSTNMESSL
Description: The ability of a compound to bind to the human DP1 receptor was evaluated via a radioligand membrane binding assay using the DP1 selective synthetic ligand [^3H]BWA868C. Packed human platelets (Biological Specialty Corporation), were resuspended in 6 volumes of Hepes/HBSS buffer (10 mM Hepes, 1 mM DTT in Hanks Balanced Salt Solution (HBSS)), lysed and centrifuged at 75,000×g to pellet the membranes. Membranes were resuspended in Hepes/HBSS buffer to approximately 12 mg protein/ml. Membranes (20 μg protein/well) are incubated in 96-well plates with 2 nM [^3H]BWA868C and test compound in Assay Buffer (50 mM Hepes, 10 mM MnCl2, 1 mM EDTA, plus or minus 0.2% human serum albumin, pH 7.4) for 60 minutes at room temperature. The reactions are terminated by rapid filtration through Whatman GF/C glass fibre filter plates. The filter plates were pre-soaked in […] polethylenimine for 30 minutes at room temperature then washed in Wash Buffer (50 mM Hepes, 0.5 M NaCl pH 7.4) prior to harvesting. After harvesting, the filter plates are washed 3 times with 1 ml cold Wash Buffer then dried. Scintillant is then added to the plates and the radioactivity retained on the filters is determined on a Packard TopCount (Perkin Elmer). Specific binding is determined as total radioactive binding minus non-specific binding in the presence of 10 μM BWA868C. IC50s were determined using GraphPad prism analysis of drug titration curves.

Row | IC50 [1] [µM] | IC50 (human DP2 receptor) [nM] | IC50 (human DP1 receptor) [nM] | SMILES
1 | < 0.3 | < 300 | > 1000 | COc1ccc(CC(=O)O)cc1-c1ccc(C(F)(F)F)cc1CN(C)C(C)=O [Compound 1-1, {2′-[(Acetyl-methyl-amino)-methyl]-6-methoxy-4′-trifluoromethyl-biphenyl-3-yl}-acetic acid]
2 | < 0.3 | < 300 | > 1000 | CCN(Cc1cc(C(F)(F)F)ccc1-c1cc(CC(=O)O)ccc1OC)C(C)=O [Compound 1-2, {2′-[(Acetyl-ethyl-amino)-methyl]-6-methoxy-4′-trifluoromethyl-biphenyl-3-yl}-acetic acid]
3 | < 0.3 | < 300 | > 1000 | COc1ccc(CC(=O)O)cc1-c1ccc(C(F)(F)F)cc1CN(CC(F)(F)F)C(C)=O [Compound 1-4, (2′-{[Acetyl-(2,2,2-trifluoro-ethyl)-amino]-methyl}-6-methoxy-4′-trifluoromethyl-biphenyl-3-yl)-acetic acid]
4 | < 0.3 | < 300 | > 1000 | CCN(Cc1cc(C(F)(F)F)ccc1-c1cc(CC(=O)O)ccc1F)C(C)=O [Compound 1-10, {2′-[(Acetyl-ethyl-amino)-methyl]-6-fluoro-4′-trifluoromethyl-biphenyl-3-yl}-acetic acid]
5 | < 0.3 | < 300 | > 1000 | CC(=O)N(Cc1cc(C(F)(F)F)ccc1-c1cc(CC(=O)O)ccc1F)CC(F)(F)F [Compound 1-11, (2′-{[Acetyl-(2,2,2-trifluoro-ethyl)-amino]-methyl}-6-fluoro-4′-trifluoromethyl-biphenyl-3-yl)-acetic acid]
6 | < 0.3 | < 300 | > 1000 | COc1ccc(CC(=O)O)cc1-c1ccc(C(F)(F)F)cc1CN(C(C)=O)C1CC1 [Compound 1-12, {2′-[(Acetyl-cyclopropyl-amino)-methyl]-6-methoxy-4′-trifluoromethyl-biphenyl-3-yl}-acetic acid]
7 |  | < 300 | > 1000 | CCN(Cc1cc(C(F)(F)F)ccc1-c1cc(CC(=O)O)ccc1OC)C(=O)NCc1cc(Cl)cc(Cl)c1 [Compound 1-165, {2′-[3-(3,5-Dichloro-benzyl)-1-ethyl-ureidomethyl]-6-methoxy-4′-trifluoromethyl-biphenyl-3-yl}-acetic acid]
8 |  | < 300 | > 1000 | CCN(Cc1cc(C(F)(F)F)ccc1-c1cc(CC(=O)O)ccc1OC)C(=O)NCc1ccc(F)cc1 [Compound 1-176, {2′-[1-Ethyl-3-(4-fluoro-benzyl)-ureidomethyl]-6-methoxy-4′-trifluoromethyl-biphenyl-3-yl}-acetic acid]
9 |  | < 300 | > 1000 | CCN(Cc1cc(C(F)(F)F)ccc1-c1cc(CC(=O)O)ccc1OC)C(=O)NCc1cccc(Cl)c1 [Compound 1-177, {2′-[3-(3-Chloro-benzyl)-1-ethyl-ureidomethyl}-6-methoxy-4′-trifluoromethyl-biphenyl-3-yl}-acetic acid]
10 |  | < 300 | > 1000 | CCN(Cc1cc(C(F)(F)F)ccc1-c1cc(CC(=O)O)ccc1OC)C(=O)NCc1cc(F)cc(F)c1 [Compound 1-178, {2′-[3-(3,5-Difluoro-benzyl)-1-ethyl-ureidomethyl]-6-methoxy-4′-trifluoromethyl-biphenyl-3-yl}-acetic acid]
11 |  | < 300 | > 1000 | CCN(Cc1cc(C(F)(F)F)ccc1-c1cc(CC(=O)O)ccc1OC)C(=O)N[C@H](C)c1ccc(Cl)cc1 [Compound 1-179, (2′-{3-[(R)-1-(4-Chloro-phenyl)-ethyl]-1-ethyl-ureidomethyl}-6-methoxy-4′-trifluoromethyl-biphenyl-3-yl)-acetic acid]
12 |  | < 300 | > 1000 | CCN(Cc1cc(C(F)(F)F)ccc1-c1cc(CC(=O)O)ccc1OC)C(=O)N[C@@H](C)c1ccc(Cl)cc1 [Compound 1-180, (2′-{3-[(S)-1-(4-Chloro-phenyl)-ethyl]-1-ethyl-ureidomethyl}-6-methoxy-4′-trifluoromethyl-biphenyl-3-yl)-acetic acid]
13 |  | < 300 | > 1000 | CCNC(=O)N(CC)Cc1cc(C(F)(F)F)ccc1-c1cc(CC(=O)O)ccc1OC [Compound 1-181, [2′-(1,3-Diethyl-ureidomethyl)-6-methoxy-4′-trifluoromethyl-biphenyl-3-yl]-acetic acid]
14 |  | < 300 | > 1000 | CCN(Cc1cc(F)ccc1-c1cc(CC(=O)O)ccc1OC)C(=O)OCc1ccccc1 [Compound 1-183, {2′-[(Benzyloxycarbonyl-ethyl-amino)-methyl]-4′-fluoro-6-methoxy-biphenyl-3-yl}-acetic acid]
15 |  | < 300 | > 1000 | CCN(Cc1cc(F)ccc1-c1cc(CC(=O)O)ccc1OC)C(C)=O [Compound 1-184, {2′-[(Acetyl-ethyl-amino)-methyl]-4′-fluoro-6-methoxy-biphenyl-3-yl}-acetic acid]
16 |  | < 300 | > 1000 | CCN(Cc1cc(F)ccc1-c1cc(CC(=O)O)ccc1OC)C(=O)NCc1ccc(Cl)cc1 [Compound 1-185, {2′-[3-(4-Chloro-benzyl)-1-ethyl-ureidomethyl]-4′-fluoro-6-methoxy-biphenyl-3-yl}-acetic acid]
17 |  | < 300 | > 1000 | CCN(Cc1cc(F)ccc1-c1cc(CC(=O)O)ccc1OC)C(=O)NCc1ccccc1 [Compound 1-187, [2′-(3-Benzyl-1-ethyl-ureidomethyl)-4′-fluoro-6-methoxy-biphenyl-3-yl]-acetic acid]
18 | < 0.3 | < 300 |  | CCN(Cc1cc(C(F)(F)F)ccc1-c1cc(CC(=O)O)ccc1O)C(=O)NCc1ccccc1 [Compound 1-220, [2′-(3-Benzyl-1-ethyl-ureidomethyl)-6-hydroxy-4′-trifluoromethyl-biphenyl-3-yl]-acetic acid]
19 | < 0.3 | < 300 |  | CCN(Cc1cc(C(F)(F)F)ccc1-c1cc(CC(=O)O)ccc1OC)C(=O)C(C)C [Compound 1-246, {2′-[(Ethyl-isobutyryl-amino)-methyl]-6-methoxy-4′-trifluoromethyl-biphenyl-3-yl}-acetic acid]
